Article PMC5773580, “A synthetic combinatorial approach to disabling deviant Hedgehog signaling” (Scientific Reports, 2018)
Values joined by “and” are separate entries in the source; they are usually repeats but may differ in a detail not shown here. Equal values may be shown once.

How the values were obtained:
HDAC1 = molecular target: T1, HDAC1 (Homo sapiens, UniProt Q13547); assay: In vitro HDAC profiling (deacetylation assay), HDAC1; type: biochemical; conditions: for HDAC Activity (Fluorescent counts): Repeat1/Repeat 2
T1 construct: purchased BPS Bioscience #50051-11
Method: (§1) HDAC profiling was performed at BPS Bioscience (San Diego, CA). All of the compounds are dissolved in DMSO. A series of dilutions of the compounds were prepared with 10% DMSO in HDAC assay buffer (#50031) and 5 µl of the dilution was added to a 50 µl reaction so that the final concentration of DMSO is 1% in all of reactions. All of the enzymatic reactions were conducted in duplicate at 37 °C for 30 mins, except that the enzyme reactions for HDAC11 were at room temperature for 3 hrs. All of the reactions were performed in a 50 µl mixture containing HDAC assay buffer, 5 µg BSA, an HDAC substrate [HDAC Substrate 3 (BPS number 50037) or HDAC Class 2a Substrate 1 (BPS number 50040)], an HDAC enzyme (#50051-11) and a test compound. After enzymatic reactions, 50 μl of HDAC Developer (#50030) was added to each well and the plate was incubated at room temperature for an additional 20 mins. Fluorescence intensity was measured at an excitation of 360 nm and an emission of 460 nm using a Tecan Infinite M1000 microplate reader. HDAC activity assays were performed in duplicates at each concentration. The fluorescent intensity data were analyzed using the computer software, Graphpad Prism. In the absence of the compound, the fluorescent intensity (Ft) in each data set was defined as 100% activity. In the absence of HDAC, the fluorescent intensity (Fb) in each data set was defined as 0% activity. The percent activity in the presence of each compound was calculated according to the following equation: %activity = (F − Fb)/(Ft − Fb), where F = the fluorescent intensity in the presence of the compound. The values of % activity versus a series of compound concentrations were then plotted using non-linear regression analysis of Sigmoidal dose-response curve generated with the equation Y = B + (T − B)/1 + 10((LogIC50 − X) × Hill Slope), where Y = percent activity, B = minimum percent activity, T = maximum percent activity, X = logarithm of compound and Hill Slope = slope factor or Hill coefficient. The IC50 value was determined by the concentration causing a half-maximal percent activity.

HDAC5 = molecular target: T2, HDAC5 (Homo sapiens, UniProt Q9UQL6); assay: In vitro HDAC profiling (deacetylation assay), HDAC5; type: biochemical; conditions: for HDAC Activity (Fluorescent counts): Repeat1/Repeat 2
T2 construct: purchased BPS Bioscience #50051-11
Method: as §1

HDAC9 = molecular target: T3, HDAC9 (Homo sapiens, UniProt Q9UKV0); assay: In vitro HDAC profiling (deacetylation assay), HDAC9; type: biochemical; conditions: for HDAC Activity (Fluorescent counts): Repeat1/Repeat 2
T3 construct: purchased BPS Bioscience #50051-11
Method: as §1

HDAC10 = molecular target: T4, HDAC10 (Homo sapiens, UniProt Q969S8); assay: In vitro HDAC profiling (deacetylation assay), HDAC10; type: biochemical; conditions: for HDAC Activity (Fluorescent counts): Repeat1/Repeat 2
T4 construct: purchased BPS Bioscience #50051-11
T4 sequence (Q969S8 1-669): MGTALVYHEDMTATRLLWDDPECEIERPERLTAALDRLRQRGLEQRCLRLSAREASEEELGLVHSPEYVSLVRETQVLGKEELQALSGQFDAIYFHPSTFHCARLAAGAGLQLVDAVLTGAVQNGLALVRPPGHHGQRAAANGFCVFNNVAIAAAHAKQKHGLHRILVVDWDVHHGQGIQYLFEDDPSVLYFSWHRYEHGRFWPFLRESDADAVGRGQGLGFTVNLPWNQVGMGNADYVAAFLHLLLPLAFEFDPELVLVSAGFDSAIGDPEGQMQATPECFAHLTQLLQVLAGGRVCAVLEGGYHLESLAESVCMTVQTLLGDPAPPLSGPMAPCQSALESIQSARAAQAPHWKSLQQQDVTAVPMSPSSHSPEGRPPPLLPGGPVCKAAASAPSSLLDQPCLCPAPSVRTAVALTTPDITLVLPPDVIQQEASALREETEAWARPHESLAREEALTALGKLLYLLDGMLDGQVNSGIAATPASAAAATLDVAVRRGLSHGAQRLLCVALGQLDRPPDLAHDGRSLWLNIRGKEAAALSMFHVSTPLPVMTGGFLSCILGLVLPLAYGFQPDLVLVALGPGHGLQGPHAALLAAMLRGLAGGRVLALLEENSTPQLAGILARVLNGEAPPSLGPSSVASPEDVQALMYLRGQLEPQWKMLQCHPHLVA
Method: as §1

[1] = test system: SHH-induced GLI activity (GLI-BS reporter) in NIH3T3; assay: HH pathway reporter (GLI-BS reporter) assay, +Shh in NIH3T3; type: cell-based; conditions: Mus musculus; +Shh in NIH3T3, 48 hrs with compound
Method: The HH-responsive firefly luciferase reporter (GLI-BS) and a control Renilla luciferase reporter (SV40-RL) were transfected into indicated cell lines using Effectene (Qiagen) either alone or with indicated DNAs. 24 hrs after transfection, cells were switched to low serum media (3% calf serum), and grown for another 48 hrs. in 5% CO2 in the presence/absence of compounds. 3T3-ShhFL cell line that stably expressing SHH and the two reporters were cultured in a similar fashion. FL and RL activities in lysate generated using Passive Lysis Buffer (Promega) were then assessed using the Dual-Luciferase kit (Promega) and a 96-well plate reading luminometer (BMG). The ratio of FL/RL was calculated and the averaged ratios from three replicates were reported.

[2] = in vitro deacetylation assay, duplicates

T3 sequence (Q9UKV0 whole entry): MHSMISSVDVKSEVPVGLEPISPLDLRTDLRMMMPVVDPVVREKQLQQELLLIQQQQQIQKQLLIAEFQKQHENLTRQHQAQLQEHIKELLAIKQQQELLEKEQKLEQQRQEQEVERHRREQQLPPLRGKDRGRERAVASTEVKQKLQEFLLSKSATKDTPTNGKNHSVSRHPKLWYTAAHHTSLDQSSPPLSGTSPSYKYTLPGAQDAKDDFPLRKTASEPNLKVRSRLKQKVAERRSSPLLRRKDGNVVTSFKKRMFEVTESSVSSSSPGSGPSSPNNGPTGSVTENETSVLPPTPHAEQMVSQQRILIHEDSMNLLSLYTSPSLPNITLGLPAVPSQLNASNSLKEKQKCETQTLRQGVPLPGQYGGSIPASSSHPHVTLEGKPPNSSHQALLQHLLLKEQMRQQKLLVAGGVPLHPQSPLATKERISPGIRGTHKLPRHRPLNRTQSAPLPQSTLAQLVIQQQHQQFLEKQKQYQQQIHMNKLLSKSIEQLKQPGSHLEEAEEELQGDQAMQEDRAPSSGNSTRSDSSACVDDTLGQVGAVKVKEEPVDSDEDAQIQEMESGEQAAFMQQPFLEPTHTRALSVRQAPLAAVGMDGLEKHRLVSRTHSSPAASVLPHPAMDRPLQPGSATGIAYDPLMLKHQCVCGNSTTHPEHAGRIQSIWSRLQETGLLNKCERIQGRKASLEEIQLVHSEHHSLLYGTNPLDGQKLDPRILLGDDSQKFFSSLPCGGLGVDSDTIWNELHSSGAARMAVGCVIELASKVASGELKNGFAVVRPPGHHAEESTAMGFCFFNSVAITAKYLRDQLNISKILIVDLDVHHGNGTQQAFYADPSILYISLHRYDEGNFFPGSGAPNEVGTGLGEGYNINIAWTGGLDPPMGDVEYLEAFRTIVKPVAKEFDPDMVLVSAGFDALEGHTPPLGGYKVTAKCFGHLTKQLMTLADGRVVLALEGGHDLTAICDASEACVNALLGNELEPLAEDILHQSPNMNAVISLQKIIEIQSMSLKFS
T1 sequence (Q13547 whole entry): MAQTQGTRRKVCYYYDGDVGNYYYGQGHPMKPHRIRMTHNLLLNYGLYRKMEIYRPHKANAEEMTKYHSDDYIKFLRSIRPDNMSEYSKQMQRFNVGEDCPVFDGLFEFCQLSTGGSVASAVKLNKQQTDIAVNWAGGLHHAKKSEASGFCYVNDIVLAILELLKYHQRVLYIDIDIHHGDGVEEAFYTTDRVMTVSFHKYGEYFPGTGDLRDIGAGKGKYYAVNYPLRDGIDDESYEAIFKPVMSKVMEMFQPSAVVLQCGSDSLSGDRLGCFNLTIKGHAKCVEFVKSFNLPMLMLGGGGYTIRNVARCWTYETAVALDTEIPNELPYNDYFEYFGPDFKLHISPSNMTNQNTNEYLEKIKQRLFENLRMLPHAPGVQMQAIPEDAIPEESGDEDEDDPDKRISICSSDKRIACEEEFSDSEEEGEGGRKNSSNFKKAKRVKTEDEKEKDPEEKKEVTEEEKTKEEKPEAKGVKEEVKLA
T2 sequence (Q9UQL6 whole entry): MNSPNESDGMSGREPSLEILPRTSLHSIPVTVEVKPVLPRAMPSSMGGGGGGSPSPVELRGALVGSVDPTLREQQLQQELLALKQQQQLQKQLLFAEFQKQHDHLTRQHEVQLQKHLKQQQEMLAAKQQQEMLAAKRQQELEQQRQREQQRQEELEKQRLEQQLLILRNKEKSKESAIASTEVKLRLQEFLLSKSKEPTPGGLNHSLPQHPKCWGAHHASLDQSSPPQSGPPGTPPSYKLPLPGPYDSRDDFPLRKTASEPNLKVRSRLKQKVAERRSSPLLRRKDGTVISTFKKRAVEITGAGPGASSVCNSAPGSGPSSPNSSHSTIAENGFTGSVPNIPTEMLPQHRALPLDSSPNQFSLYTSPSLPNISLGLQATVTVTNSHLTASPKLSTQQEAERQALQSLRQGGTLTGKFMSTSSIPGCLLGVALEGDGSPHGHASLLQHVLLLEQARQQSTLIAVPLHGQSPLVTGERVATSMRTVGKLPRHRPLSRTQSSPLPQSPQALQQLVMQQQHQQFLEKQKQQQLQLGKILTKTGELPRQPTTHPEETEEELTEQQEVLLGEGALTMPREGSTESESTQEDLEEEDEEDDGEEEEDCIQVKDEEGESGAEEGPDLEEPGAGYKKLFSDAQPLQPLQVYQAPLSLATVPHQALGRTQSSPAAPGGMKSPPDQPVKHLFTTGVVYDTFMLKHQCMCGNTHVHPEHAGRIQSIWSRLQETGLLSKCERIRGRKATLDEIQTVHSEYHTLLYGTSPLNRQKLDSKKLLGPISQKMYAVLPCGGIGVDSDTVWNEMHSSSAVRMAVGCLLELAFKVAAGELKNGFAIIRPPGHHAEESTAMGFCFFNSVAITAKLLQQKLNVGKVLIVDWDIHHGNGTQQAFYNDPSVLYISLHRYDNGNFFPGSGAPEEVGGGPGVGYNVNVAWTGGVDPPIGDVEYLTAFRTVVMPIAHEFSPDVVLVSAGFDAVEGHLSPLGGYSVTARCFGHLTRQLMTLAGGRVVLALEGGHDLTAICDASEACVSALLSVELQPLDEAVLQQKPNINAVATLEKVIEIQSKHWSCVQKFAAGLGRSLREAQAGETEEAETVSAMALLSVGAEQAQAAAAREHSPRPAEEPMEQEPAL

IC50 (HDAC1; [2]): 285 nM | IC50 (HDAC5; [2]): > 10000 nM | IC50 (HDAC9; [2]): > 10000 nM | IC50 (HDAC10; [2]): 174 nM
SMILES: O=C(CCCCCCC(=O)Nc1ccc(Cl)c(C(=O)Nc2ccc(NC(=O)c3cc(Cl)ccc3Cl)cc2)c1)NO [IHR-SAHA]
HDAC Activity (Fluorescent counts) (HDAC1; HDAC1, WW01 0 Log nM): 31058 Fluorescent counts and 32831 Fluorescent counts | HDAC Activity (Fluorescent counts) (HDAC1; HDAC1, WW01 0.5 Log nM): 31900 Fluorescent counts and 30926 Fluorescent counts | HDAC Activity (Fluorescent counts) (HDAC1; HDAC1, WW01 1 Log nM): 29505 Fluorescent counts and 28223 Fluorescent counts | HDAC Activity (Fluorescent counts) (HDAC1; HDAC1, WW01 1.5 Log nM): 27089 Fluorescent counts and 26820 Fluorescent counts | HDAC Activity (Fluorescent counts) (HDAC1; HDAC1, WW01 2 Log nM): 21883 Fluorescent counts and 21225 Fluorescent counts | HDAC Activity (Fluorescent counts) (HDAC1; HDAC1, WW01 2.5 Log nM): 19997 Fluorescent counts and 14409 Fluorescent counts | HDAC Activity (Fluorescent counts) (HDAC1; HDAC1, WW01 3 Log nM): 9008 Fluorescent counts and 8923 Fluorescent counts | HDAC Activity (Fluorescent counts) (HDAC1; HDAC1, WW01 3.5 Log nM): 7360 Fluorescent counts and 7292 Fluorescent counts | HDAC Activity (Fluorescent counts) (HDAC1; HDAC1, WW01 4 Log nM): 6195 Fluorescent counts and 6043 Fluorescent counts | HDAC Activity (Fluorescent counts) (HDAC1; HDAC1, WW01 -0.5 Log nM): 31660 Fluorescent counts and 32681 Fluorescent counts | HDAC Activity (Fluorescent counts) (HDAC5; HDAC5, WW01 0 Log nM): 30976 Fluorescent counts and 29141 Fluorescent counts | HDAC Activity (Fluorescent counts) (HDAC5; HDAC5, WW01 0.5 Log nM): 29969 Fluorescent counts and 29451 Fluorescent counts | HDAC Activity (Fluorescent counts) (HDAC5; HDAC5, WW01 1 Log nM): 31041 Fluorescent counts and 29968 Fluorescent counts | HDAC Activity (Fluorescent counts) (HDAC5; HDAC5, WW01 1.5 Log nM): 29717 Fluorescent counts and 27943 Fluorescent counts | HDAC Activity (Fluorescent counts) (HDAC5; HDAC5, WW01 2 Log nM): 26390 Fluorescent counts and 24587 Fluorescent counts | HDAC Activity (Fluorescent counts) (HDAC5; HDAC5, WW01 2.5 Log nM): 24330 Fluorescent counts and 23282 Fluorescent counts | HDAC Activity (Fluorescent counts) (HDAC5; HDAC5, WW01 3 Log nM): 21924 Fluorescent counts and 21338 Fluorescent counts | HDAC Activity (Fluorescent counts) (HDAC5; HDAC5, WW01 3.5 Log nM): 23432 Fluorescent counts and 20698 Fluorescent counts | HDAC Activity (Fluorescent counts) (HDAC5; HDAC5, WW01 4 Log nM): 19760 Fluorescent counts and 18237 Fluorescent counts | HDAC Activity (Fluorescent counts) (HDAC5; HDAC5, WW01 -0.5 Log nM): 30061 Fluorescent counts and 30641 Fluorescent counts | HDAC Activity (Fluorescent counts) (HDAC9; HDAC9, WW01 0 Log nM): 15707 Fluorescent counts and 17505 Fluorescent counts | HDAC Activity (Fluorescent counts) (HDAC9; HDAC9, WW01 0.5 Log nM): 15735 Fluorescent counts and 16677 Fluorescent counts | HDAC Activity (Fluorescent counts) (HDAC9; HDAC9, WW01 1 Log nM): 15823 Fluorescent counts and 16968 Fluorescent counts | HDAC Activity (Fluorescent counts) (HDAC9; HDAC9, WW01 1.5 Log nM): 15598 Fluorescent counts and 16390 Fluorescent counts | HDAC Activity (Fluorescent counts) (HDAC9; HDAC9, WW01 2 Log nM): 15941 Fluorescent counts and 16116 Fluorescent counts | HDAC Activity (Fluorescent counts) (HDAC9; HDAC9, WW01 2.5 Log nM): 14685 Fluorescent counts and 15111 Fluorescent counts | HDAC Activity (Fluorescent counts) (HDAC9; HDAC9, WW01 3 Log nM): 14898 Fluorescent counts and 14972 Fluorescent counts | HDAC Activity (Fluorescent counts) (HDAC9; HDAC9, WW01 3.5 Log nM): 13364 Fluorescent counts and 15040 Fluorescent counts | HDAC Activity (Fluorescent counts) (HDAC9; HDAC9, WW01 4 Log nM): 14972 Fluorescent counts and 13303 Fluorescent counts | HDAC Activity (Fluorescent counts) (HDAC9; HDAC9, WW01 -0.5 Log nM): 15619 Fluorescent counts and 16563 Fluorescent counts | HDAC Activity (Fluorescent counts) (HDAC10; HDAC10, WW01 0 Log nM): 21183 Fluorescent counts and 21616 Fluorescent counts | HDAC Activity (Fluorescent counts) (HDAC10; HDAC10, WW01 0.5 Log nM): 20859 Fluorescent counts and 21260 Fluorescent counts | HDAC Activity (Fluorescent counts) (HDAC10; HDAC10, WW01 1 Log nM): 19414 Fluorescent counts and 20650 Fluorescent counts | HDAC Activity (Fluorescent counts) (HDAC10; HDAC10, WW01 1.5 Log nM): 17046 Fluorescent counts and 19100 Fluorescent counts | HDAC Activity (Fluorescent counts) (HDAC10; HDAC10, WW01 2 Log nM): 13500 Fluorescent counts and 13556 Fluorescent counts | HDAC Activity (Fluorescent counts) (HDAC10; HDAC10, WW01 2.5 Log nM): 9393 Fluorescent counts and 9233 Fluorescent counts | HDAC Activity (Fluorescent counts) (HDAC10; HDAC10, WW01 3 Log nM): 6324 Fluorescent counts and 6307 Fluorescent counts | HDAC Activity (Fluorescent counts) (HDAC10; HDAC10, WW01 3.5 Log nM): 4593 Fluorescent counts and 4402 Fluorescent counts | HDAC Activity (Fluorescent counts) (HDAC10; HDAC10, WW01 4 Log nM): 3949 Fluorescent counts and 4170 Fluorescent counts | HDAC Activity (Fluorescent counts) (HDAC10; HDAC10, WW01 -0.5 Log nM): 22257 Fluorescent counts and 21526 Fluorescent counts | IC50 [1]: 3 nM
